Experiments:
[1] = Mouse Experiment #1: DES in mouse plasma by TSQ-ESI-MS after i.p. injection or topical DES cream; format: in vivo; conditions: ip, 0.75 mg, DES i.p. 0.75 mg, read-out: DES Amount in plasma
Method: 375 mg of diethylstilbestrol (DES; Sigma, cat #D4628) was then added to 2.5 ml of the lecithin solution and combined with 10 ml of the 20% poloxamer solution. This combination was stirred overnight at room temperature. The result was a viscous 3% (g/ml) DES cream, of which 0.25 ml was applied to each mouse resulting in a topical dose of approximately 7.5 mg.
100 μl samples of commercial BALB/C mouse plasma containing the following concentrations of DES were used to produce a standard curve: 0, 0.01, 0.02, 0.05, 0.08, 0.1, 0.2, 0.5, 0.8, 1.0 (nanograms of DES per milliliter of mouse plasma). Each plasma standard was spiked with 10 μl of d8-DES (Isotech, cat #614289) used as an internal standard. Prior to the next step, samples taken from live mice were exposed to 5 μl of β-glucuronidase (Sigma, cat #G7017) and incubated at 37° C. for 70 minutes at 100 rpm. The enzymatic reaction was necessary in order to separate the DES molecule from any conjugated glucoronic acid that may be present. Following this incubation, 10 μl of 6M perchloric acid and 50 μl of acetonitrile were added. Each sample was then mixed for 2 minutes, following by centrifugation at 17,000×g for 5 minutes at 5° C. The supernatant was combined with 40 μl of 0.75M potassium carbonate and mixed for 30 seconds. Precipitated potassium perchlorate was removed by centrifugation at 17,000×g for 5 minutes at 5° C. […]

[2] = Mouse Experiment #2: DES in mouse plasma by TSQ-ESI-MS after three cream applications or i.p. injection; format: in vivo, athymic nude mice; conditions: athymic nude, ip, DES i.p. 0.75 mg, β-glucuronidase, read-out: DES Amount in plasma
Method: 100 μl samples of commercial BALB/C mouse plasma containing the following concentrations of DES were used to produce a standard curve: 0, 0.01, 0.02, 0.05, 0.08, 0.1, 0.2, 0.5, 0.8, 1.0 (nanograms of DES per milliliter of mouse plasma). Each plasma standard was spiked with 10 μl of d8-DES (Isotech, cat #614289) used as an internal standard. Prior to the next step, samples taken from live mice were exposed to 5 μl of β-glucuronidase (Sigma, cat #G7017) and incubated at 37° C. for 70 minutes at 100 rpm. The enzymatic reaction was necessary in order to separate the DES molecule from any conjugated glucoronic acid that may be present. Following this incubation, 10 μl of 6M perchloric acid and 50 μl of acetonitrile were added. Each sample was then mixed for 2 minutes, following by centrifugation at 17,000×g for 5 minutes at 5° C. The supernatant was combined with 40 μl of 0.75M potassium carbonate and mixed for 30 seconds. Precipitated potassium perchlorate was removed by centrifugation at 17,000×g for 5 minutes at 5° C. The resulting supernatant was subjected to TSQ-ESI-MS. The chromatography conditions were the following: 25 μl metal loop, 10 μl no waste injection; oven 22° C.; flow rate 0.3 ml/min; solvents: A=water, C=MeOH; column: Hypersil Gold 100×2.1 mm, 5 μm bore (Thermo Scientific, catalog #25005-102130; with guard column). […]

[3] = test system: dihydrotestosterone and testosterone; test: Mouse Experiment #2: radioimmunoassay for androgen suppression by DES; format: in vivo, athymic nude mice; conditions: DES i.p., 1 hour (used as baseline)
Method: Six athymic nude mice (Harlan) were used for this experiment. As above, mouse 1 received a 100 μl injection of a 7.5% DES solution in DMSO, for a total dose of […]. Mice 2, 3, 4, 5, and 6 received three applications of 0%, 0.5%, 1%, 2%, and 3% DES cream at 24 h intervals. 24 h following the final cream application and 1 h post-injection, blood was taken from each mouse by cardiac puncture. Each cardiac puncture sample was combined with 0.1 ml sodium heparin (50 mg/ml; Sigma, cat #). Blood plasma was isolated from each sample by centrifugation at 4,000 rpm for 15 minutes. This yielded approximately 0.2 to 0.4 ml of plasma from each sample.
A radioimmunoassay that detects both dihydrotestosterone and testosterone was used to assess androgen suppression by DES.

[4] = patients receiving 5 mg of DES per day, oral; cited from earlier work
hot flashes = conditions: DES 1 mg per day, cited from earlier work
[5] = oral, versus conventional ADT, non-metastatic prostate cancer; cited from earlier work
coagulation factors = conditions: in vivo; cited from earlier work
[6] = cited from earlier work
[7] = PEP group, 915 men, median follow-up 27 months

Compound: CCC(=C(CC)c1ccc(O)cc1)c1ccc(O)cc1 [DES, 4-[4-(4-hydroxyphenyl)hex-3-en-3-yl]phenol]
- concentration at 1 h ([1]; no β-glucuronidase): 0.089 ng/mL
- concentration at 1 h ([1]; β-glucuronidase sample prep): 1.48 ng/mL
- concentration at 1 h [2]: 1.93 ng/mL
- [testosterone] [3]: 143 pg/mlI
- increase in non-cancer related deaths, mostly cardiovascular [4]: 36%
- patients with significant improvement of hot flashes (hot flashes; remaining patients): 14%
- patients with resolution of hot flashes (hot flashes): 86%
- urinary N-telopeptide levels (marker for bone turnover) [5]: significantly lower

Compound: C[C@]12CC[C@@H]3c4ccc(O)cc4CC[C@H]3[C@@H]1CC[C@@H]2O [transdermal estradiol, estradiol]
- F1.2 (coagulation factors): did not affect

Compound: polyoestradiol phosphate [PEP]
- non-fatal cardiovascular events: heart failure [6, 7]: 4.4%
- non-fatal cardiovascular events: ischemic heart disease [6, 7]: 3.7%
- cardiovascular or thromboembolic complications ([6]; phase I, intramuscular, 12 patients, median 12.9 months): did not cause any
- Antithrombin III activity (coagulation factors): significant decrease
- Factor VII (coagulation factors): no change
- Fibrinogen (coagulation factors): unchanged

Reference: patent publication US20100016445A1, “TRANSDERMAL DIETHYLSTILBESTROL FOR TREATING PROSTATE CANCER” (Oregon Health and Science University, priority 2006, published 2010)
